Source: ChEMBL document CHEMBL1138858, “Small-molecule targeting of heat shock protein 90 chaperone function: rational identification of a new anticancer lead” (J Med Chem, 2006)
Calls of active or inactive are those of the source. The calls are words filed in the database; no cut-off is given here.

What was measured:
[1] = system: HeLa; assay: Induction of apoptosis in HeLa cells after 72 hrs at 125 uM; format: functional, Homo sapiens
[2] = target: T1, Caspase-3 (Homo sapiens) (UniProt P42574); assay: Activation of caspase 3 in HeLa cells assessed as hydrolysis of DEVD-pNA […] substrate; format: cell-based
T1 sequence (whole entry): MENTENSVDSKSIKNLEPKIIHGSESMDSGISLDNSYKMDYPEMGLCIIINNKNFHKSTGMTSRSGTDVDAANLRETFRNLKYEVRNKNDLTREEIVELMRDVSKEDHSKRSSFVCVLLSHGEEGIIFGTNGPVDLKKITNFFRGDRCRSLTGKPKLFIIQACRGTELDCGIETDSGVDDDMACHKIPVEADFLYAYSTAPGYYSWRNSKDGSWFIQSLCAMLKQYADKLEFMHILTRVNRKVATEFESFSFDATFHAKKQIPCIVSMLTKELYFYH

[3] = Cytotoxicity against human WI38 cells after 72 hrs; format: cell-based; conditions: wi-38, 72 h
[4] = system: HeLa; assay: Cytotoxicity against HeLa cells after 72 hrs; format: cell-based; conditions: Homo sapiens
[5] = target: T2, Caspase-9 (Homo sapiens) (UniProt P55211); assay: Activation of caspase 9 in HeLa cells assessed as hydrolysis of LEHD-pNA […] substrate; format: cell-based
T2 sequence (whole entry): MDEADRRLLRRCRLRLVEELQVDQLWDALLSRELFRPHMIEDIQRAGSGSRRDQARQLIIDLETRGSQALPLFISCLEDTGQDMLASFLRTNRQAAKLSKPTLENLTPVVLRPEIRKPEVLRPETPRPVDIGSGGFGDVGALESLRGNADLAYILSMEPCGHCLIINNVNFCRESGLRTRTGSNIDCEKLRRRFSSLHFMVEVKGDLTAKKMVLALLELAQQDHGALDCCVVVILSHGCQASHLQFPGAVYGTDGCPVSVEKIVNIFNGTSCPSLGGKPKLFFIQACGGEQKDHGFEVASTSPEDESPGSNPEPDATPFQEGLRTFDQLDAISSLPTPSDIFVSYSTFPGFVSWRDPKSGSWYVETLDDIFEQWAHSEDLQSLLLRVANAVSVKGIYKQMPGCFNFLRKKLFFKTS

[6] = target: T2, Caspase-9 (Homo sapiens); assay: Activation of caspase 9 in DU145 cells assessed as hydrolysis of LEHD-pNA […] substrate; format: cell-based; conditions: DU-145
[7] = Cytotoxicity against JR8 cells after 72 hrs; format: cell-based; conditions: Homo sapiens, JR8, 72 h
[8] = system: DU-145; assay: Cytotoxicity against DU145 cells after 72 hrs; format: cell-based; conditions: Homo sapiens, DU-145, 72 h
[9] = target: T1, Caspase-3 (Homo sapiens); assay: Activation of caspase 3 in DU145 cells assessed as hydrolysis of DEVD-pNA […] substrate; format: cell-based; conditions: DU-145
[10] = Induction of apoptosis in JR8 cells after 72 hrs at 125 uM; format: functional, Homo sapiens
[11] = Apoptotic activity against JR8 cells after 72 hrs; format: functional, Homo sapiens
[12] = target: T3, Heat shock protein HSP90 (Homo sapiens) (UniProt P07900+P08238); assay: Activity at Hsp90 in HeLa cells assessed as reduction in telomerase activity by TRAP assay relative to control; format: cell-based; set-up: scale not given: the % may be the effect or the level left
[13] = target: T3, Heat shock protein HSP90 (Homo sapiens); assay: Activity at Hsp90 in DU145 cells assessed as reduction in telomerase activity by TRAP assay relative to control; format: cell-based; set-up: scale not given: the % may be the effect or the level left; conditions: DU-145
[14] = system: HeLa; assay: Apoptotic activity against HeLa cells after 72 hrs; format: functional, Homo sapiens
[15] = system: DU-145; assay: Apoptotic activity against DU145 cells after 72 hrs; format: functional, Homo sapiens
[16] = system: DU-145; assay: Induction of apoptosis in DU145 cells after 72 hrs at 62.5 uM; format: functional, Homo sapiens

SMILES	Activity [1] [%]	Activity [2]	Activity [3]	IC50 [4] [µM]	Activity [5]	Activity [6]	IC50 [7] [µM]	IC50 [8] [µM]	Activity [9]	Activity [10] [%]	Activity [11] [%]	Activity [12] [%]	Activity [13] [%]	Activity [14] [%]	Activity [15] [%]	Activity [16] [%]
NC(=O)c1ncn([C@@H]2O[C@H](COP(=O)(O)O)[C@@H](O)[C@H]2O)c1N	27	Active	Not Active	126	Active	Active	105	59	Active	20	13	70	70	23	28	34
C=CCNC1=C2C[C@@H](C)C[C@H](OC)[C@H](O)[C@@H](C)/C=C(\C)[C@H](OC(N)=O)[C@@H](OC)/C=C\C=C(/C)C(=O)NC(=CC1=O)C2=O [TANESPIMYCIN]				108			53.3	68.3			12			10.8	15.9	
